Assays:
chickweed = experiment: Test Example 4: herbicidal effect by soil treatment (Table 19, symbol P); assay type: in vivo, common chickweed (Stellaria media); conditions: amount of applied herbicide 320 g/ha
How it was run: (§1)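 Emulsion of test compound, water-diluted to predetermined amount, sprayed on soil after sowing (seed depth ~1.5 cm, sterilized diluvial soil). Greenhouse, 25–30° C. Effect graded at three weeks post-spray.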

wild oat [1] = experiment: Test Example 5: herbicidal effect by foliage application, plastic box (Table 20, symbol I); assay type: in vivo, wild oat (Avena fatua); conditions: foliage application, 320 g/ha
How it was run: (§2)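 Post-emergence foliar test in sterilized diluvial soil. Compound applied as water-diluted emulsion at a predetermined rate to 14-day-old plants; evaluation at three weeks.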

velvetleaf = experiment: Test Example 5: herbicidal effect by foliage application, plastic box (Table 20, symbol M); assay type: in vivo, velvetleaf (Abutilon theophrasti); conditions: foliage application, 320 g/ha
How it was run: as §2

persian speedwell = experiment: Test Example 4: herbicidal effect by soil treatment (Table 19, symbol R); assay type: in vivo, Persian speedwell (Veronica persica); conditions: amount of applied herbicide 320 g/ha
How it was run: as §1

blackgrass [2] = experiment: Test Example 4: herbicidal effect by soil treatment (Table 19, symbol J); assay type: in vivo, blackgrass (Alopecurus myosuroides); conditions: amount of applied herbicide 320 g/ha
How it was run: as §1

barnyard grass [3] = experiment: Test Example 3: herbicidal effect by foliage application, Wagner pot (Table 18, symbol H); assay type: in vivo, barnyard grass (Echinochloa crus-galli); conditions: for Herbicidal effect on H (barnyard grass), foliage application: amount of applied herbicide 320 g/ha
How it was run: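 Plants were sown in alluvial soil held under 0.1–0.5 cm standing water and grown 14 days in a greenhouse at 25–30 °C. An emulsifiable formulation, water-diluted to the set dose, was then sprayed onto the foliage, and effects were scored three weeks later using previously defined criteria.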

barnyard grass [4] = experiment: Test Example 4: herbicidal effect by soil treatment (Table 19, symbol H); assay type: in vivo, barnyard grass (Echinochloa crus-galli); conditions: amount of applied herbicide 320 g/ha
How it was run: as §1

Japanese bulrush [5] = experiment: Test Example 1: herbicidal activity, application before weed generation under submerged conditions (Table 16, symbol B); assay type: in vivo, Japanese bulrush (Schoenoplectus juncoides); conditions: amount of applied herbicide 320 g/ha
How it was run: (§3)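 Alluvial soil was flooded to 4 cm depth, weed seeds were sown mixed and 2.5-leaf rice seedlings were transplanted. On sowing day, the compound's emulsion, diluted in water to a set dose, was applied to the water surface. Plants grew at 25–30 °C and were scored 0–5 after three weeks.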

blackgrass [6] = experiment: Test Example 5: herbicidal effect by foliage application, plastic box (Table 20, symbol J); assay type: in vivo, blackgrass (Alopecurus myosuroides); conditions: foliage application, 320 g/ha
How it was run: as §2

Japanese bulrush [7] = experiment: Test Example 2: herbicidal activity, application during weed generation under submerged conditions (Table 17, symbol B); assay type: in vivo, Japanese bulrush (Schoenoplectus juncoides); conditions: for herbicidal effect rating, B: Japanese bulrush: AAH 320 g/ha, application during weed generation, submerged conditions
How it was run: (§4)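 In this pot test, flooded alluvial soil (water depth 4 cm) holds all three species sown as a mixture. Once seedlings have one to two leaves, the compound's emulsion, thinned with water to the intended dose, is poured on the water; grading follows after three weeks on the earlier criteria.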

Italian ryegrass [8] = experiment: Test Example 5: herbicidal effect by foliage application, plastic box (Table 20, symbol K); assay type: in vivo, Italian ryegrass (Lolium multiflorum); conditions: foliage application, 320 g/ha
How it was run: as §2

green foxtail = experiment: Test Example 4: herbicidal effect by soil treatment (Table 19, symbol G); assay type: in vivo, green foxtail (Setaria viridis); conditions: amount of applied herbicide 320 g/ha
How it was run: as §1

Italian ryegrass [9] = experiment: Test Example 4: herbicidal effect by soil treatment (Table 19, symbol K); assay type: in vivo, Italian ryegrass (Lolium multiflorum); conditions: amount of applied herbicide 320 g/ha
How it was run: as §1

wild oat [10] = experiment: Test Example 4: herbicidal effect by soil treatment (Table 19, symbol I); assay type: in vivo, wild oat (Avena fatua); conditions: amount of applied herbicide 320 g/ha
How it was run: as §1

late watergrass [11] = experiment: Test Example 1: herbicidal activity, application before weed generation under submerged conditions (Table 16, symbol A); assay type: in vivo, late watergrass (Echinochloa oryzicola); conditions: amount of applied herbicide 320 g/ha
How it was run: as §3

late watergrass [12] = experiment: Test Example 2: herbicidal activity, application during weed generation under submerged conditions (Table 17, symbol A); assay type: in vivo, late watergrass (Echinochloa oryzicola); conditions: for herbicidal effect rating, A: late watergrass: AAH 320 g/ha, application during weed generation, submerged conditions
How it was run: as §4

redroot pigweed = experiment: Test Example 5: herbicidal effect by foliage application, plastic box (Table 20, symbol N); assay type: in vivo, redroot pigweed (Amaranthus retroflexus); conditions: foliage application, 320 g/ha
How it was run: as §2

[13] = evaluated 3 weeks after application
[14] = application during weed generation under submerged conditions, amount of applied herbicide 320 g/ha

| Structure (SMILES) | P: chickweed, herbicidal effect grade (chickweed) | herbicidal effect on wild oat (I) (wild oat [1]; three weeks after application) | herbicidal effect on velvetleaf (M) (velvetleaf; three weeks after application) | R: persian speedwell, herbicidal effect grade (persian speedwell) | J: blackgrass, herbicidal effect grade (blackgrass [2]) | Herbicidal effect on H (barnyard grass), foliage application (barnyard grass [3]) | H: barnyard grass, herbicidal effect grade (barnyard grass [4]) | Herbicidal effect, B: Japanese bulrush (Japanese bulrush [5]) | herbicidal effect on blackgrass (J) (blackgrass [6]; three weeks after application) | herbicidal effect rating, B: Japanese bulrush (Japanese bulrush [7]) | herbicidal effect on Italian ryegrass (K) (Italian ryegrass [8]; three weeks after application) | G: green foxtail, herbicidal effect grade (green foxtail) | K: Italian ryegrass, herbicidal effect grade (Italian ryegrass [9]) | I: wild oat, herbicidal effect grade (wild oat [10]) | Herbicidal effect, A: late watergrass (late watergrass [11]) | herbicidal effect rating, A: late watergrass (late watergrass [12]) | further results |
| --- | --- | --- | --- | --- | --- | --- | --- | --- | --- | --- | --- | --- | --- | --- | --- | --- | --- |
| Cc1nn(C)c(=O)c(-c2c(-c3ccc4c(c3)OCCO4)oc3ccccc23)c1O [8-002] | 5 (Herbicidal rate of 90% or more (almost completely withered)) | 2 (Herbicidal rate of 20% or more and less than 40%) | 5 (Herbicidal rate of 90% or more (almost completely withered)) | 5 (Herbicidal rate of 90% or more (almost completely withered)) | 0 (Herbicidal rate of 5% or less (almost no effect)) | 4 (Herbicidal rate of 70% or more and less than 90%) | 3 (Herbicidal rate of 40% or more and less than 70%) | 5 (Herbicidal rate of 90% or more (almost completely withered)) | 0 (Herbicidal rate of 5% or less (almost no effect)) | 4 (Herbicidal rate of 70% or more and less than 90%) | 4 (Herbicidal rate of 70% or more and less than 90%) | 3 (Herbicidal rate of 40% or more and less than 70%) | 0 (Herbicidal rate of 5% or less (almost no effect)) | 0 (Herbicidal rate of 5% or less (almost no effect)) | 4 (Herbicidal rate of 70% or more and less than 90%) | 3 (Herbicidal rate of 40% or more and less than 70%) | – |
| CCCC(=O)Oc1c(C)nn(C)c(=O)c1-c1c(-c2ccc3c(c2)OCCO3)oc2ccc(C)cc12 [9-013] | 0 (Herbicidal rate of 5% or less (almost no effect)) | 0 (Herbicidal rate of 5% or less (almost no effect)) | 5 (Herbicidal rate of 90% or more (almost completely withered)) | 0 (Herbicidal rate of 5% or less (almost no effect)) | 0 (Herbicidal rate of 5% or less (almost no effect)) | 1 (Herbicidal rate of 5% or more and less than 20%) | 1 (Herbicidal rate of 5% or more and less than 20%) | 4 (Herbicidal rate of 70% or more and less than 90%) | 0 (Herbicidal rate of 5% or less (almost no effect)) | 0 (Herbicidal rate of 5% or less (almost no effect)) | 2 (Herbicidal rate of 20% or more and less than 40%) | 3 (Herbicidal rate of 40% or more and less than 70%) | 0 (Herbicidal rate of 5% or less (almost no effect)) | 0 (Herbicidal rate of 5% or less (almost no effect)) | 3 (Herbicidal rate of 40% or more and less than 70%) | 0 (Herbicidal rate of 5% or less (almost no effect)) | – |
| CCCOc1ccc(-c2oc3ccccc3c2-c2c(O)c(C)nn(C)c2=O)cc1 [8-003] | 1 (Herbicidal rate of 5% or more and less than 20%) | 1 (Herbicidal rate of 5% or more and less than 20%) | 5 (Herbicidal rate of 90% or more (almost completely withered)) | 4 (Herbicidal rate of 70% or more and less than 90%) | 1 (Herbicidal rate of 5% or more and less than 20%) | 5 (Herbicidal rate of 90% or more (almost completely withered)) | 5 (Herbicidal rate of 90% or more (almost completely withered)) | 5 (Herbicidal rate of 90% or more (almost completely withered)) | 4 (Herbicidal rate of 70% or more and less than 90%) | 3 (Herbicidal rate of 40% or more and less than 70%) | 4 (Herbicidal rate of 70% or more and less than 90%) | 2 (Herbicidal rate of 20% or more and less than 40%) | 4 (Herbicidal rate of 70% or more and less than 90%) | 0 (Herbicidal rate of 5% or less (almost no effect)) | 5 (Herbicidal rate of 90% or more (almost completely withered)) | 4 (Herbicidal rate of 70% or more and less than 90%) | – |
| CSc1ccc(-c2oc3ccc(C)cc3c2-c2c(O)c(C)nn(C)c2=O)cc1 [9-055] | 5 (Herbicidal rate of 90% or more (almost completely withered)) | – | – | 5 (Herbicidal rate of 90% or more (almost completely withered)) | – | 5 (Herbicidal rate of 90% or more (almost completely withered)) | 3 (Herbicidal rate of 40% or more and less than 70%) | 4 (Herbicidal rate of 70% or more and less than 90%) | – | – | – | 4 (Herbicidal rate of 70% or more and less than 90%) | 5 (Herbicidal rate of 90% or more (almost completely withered)) | 0 (Herbicidal rate of 5% or less (almost no effect)) | 5 (Herbicidal rate of 90% or more (almost completely withered)) | – | I (wild oat) herbicidal effect grade (wild oat [1]; [13]): 0 (Herbicidal rate of 5% or less (almost no effect)); M (velvetleaf) herbicidal effect grade (velvetleaf; [13]): 5 (Herbicidal rate of 90% or more (almost completely withered)); N (redroot pigweed) herbicidal effect grade (redroot pigweed; [13]): 5 (Herbicidal rate of 90% or more (almost completely withered)); J (blackgrass) herbicidal effect grade (blackgrass [6]; [13]): 5 (Herbicidal rate of 90% or more (almost completely withered)); herbicidal effect grade, B: Japanese bulrush (Japanese bulrush [7]; [14]): 3 (Herbicidal rate of 40% or more and less than 70%); K (Italian ryegrass) herbicidal effect grade (Italian ryegrass [8]; [13]): 5 (Herbicidal rate of 90% or more (almost completely withered)); herbicidal effect grade, A: late watergrass (late watergrass [12]; [14]): 4 (Herbicidal rate of 70% or more and less than 90%) |
| CCCC(=O)Oc1c(C)nn(C)c(=O)c1-c1c(-c2ccc(F)cc2OCC)sc2cc(Cl)ccc12 [3-046] | 4 (Herbicidal rate of 70% or more and less than 90%) | – | – | 4 (Herbicidal rate of 70% or more and less than 90%) | – | – | 0 (Herbicidal rate of 5% or less (almost no effect)) | 0 (Herbicidal rate of 5% or less (almost no effect)) | – | 2 (Herbicidal rate of 20% or more and less than 40%) | – | 0 (Herbicidal rate of 5% or less (almost no effect)) | 0 (Herbicidal rate of 5% or less (almost no effect)) | 0 (Herbicidal rate of 5% or less (almost no effect)) | 4 (Herbicidal rate of 70% or more and less than 90%) | 0 (Herbicidal rate of 5% or less (almost no effect)) | I: wild oat, herbicidal effect grade (wild oat [1]; three weeks after application): 5 (Herbicidal rate of 90% or more (almost completely withered)); M: velvetleaf, herbicidal effect grade (velvetleaf; three weeks after application): 4 (Herbicidal rate of 70% or more and less than 90%); N: redroot pigweed, herbicidal effect grade (redroot pigweed; three weeks after application): 4 (Herbicidal rate of 70% or more and less than 90%); herbicidal effect on barnyard grass (H) (barnyard grass [3]; 320 g/ha): 5 (Herbicidal rate of 90% or more (almost completely withered)); J: blackgrass, herbicidal effect grade (blackgrass [6]; three weeks after application): 4 (Herbicidal rate of 70% or more and less than 90%); K: Italian ryegrass, herbicidal effect grade (Italian ryegrass [8]; three weeks after application): 0 (Herbicidal rate of 5% or less (almost no effect)) |
